The values below come from patent US20230093124A1, “Salts of Nintedanib and Crystalline Forms Thereof” (Apotex Inc., priority 2021, published 2023).

The structures appear in SMILES notation.

A short description of data set [1]: Form stability at high temperature and humidity (uncovered vial in stability chamber, then PXRD / 1H NMR analysis). In kind it is physicochemical. On the set-up: key to Form stability result (PXRD): NC: no change in PXRD. The following applies: 40° C./75% RH. The protocol:
PXRD diffractograms were recorded on a Bruker D8 Discover powder X-ray diffractometer (Bruker AXS LLC, Karlsruhe, Germany). The sample holder was oscillated along X and Y axes during the measurement. The generator was a Incoatec Microfocus Source (IμS) Cu tube (λ=1.54060 Å) with a voltage of 50 kV and current of 1.00 mA, using a divergence slit of 0.3 mm and collimator of 0.3 mm. For each sample, one frame was collected using a still scan with a PILATUS3 R 100K-A detector at the distance of 154.72 mm from the sample. Raw data were evaluated using the program DIFFRAC.EVA (Bruker AXS LLC, Karlsruhe, Germany).
Samples were kept in an uncovered vial in a stability chamber maintained at 40° C./75% relative humidity (RH) for the specified period prior to PXRD analysis to evaluate form stability.

The conditions of data set [2]: cited from earlier work.
The conditions of data set [3]: cited from earlier work. This is another data set of the same source.
For data set [4] the following is noted: cited from earlier work. The source holds these as a separate data set.

In the case of `CC1=CC(=O)NS(=O)(=O)O1.COC(=O)c1ccc2c(c1)NC(=O)C2=C(Nc1ccc(N(C)C(=O)CN2CCN(C)CC2)cc1)c1ccccc1` [Nintedanib acesulfamate Form APO-I, nintedanib acesulfamate], the “Form stability result (PXRD)” value in data set [1] (1 month) was “NC”. On to `CC1=CC(=O)NS(=O)(=O)O1.CC1=CC(=O)NS(=O)(=O)O1.COC(=O)c1ccc2c(c1)NC(=O)C2=C(Nc1ccc(N(C)C(=O)CN2CCN(C)CC2)cc1)c1ccccc1` [Nintedanib diacesulfamate Form APO-I, nintedanib diacesulfamate], for which the “Form stability result (PXRD)” value in data set [1] (3 months) is on record as “NC”. On to `COC(=O)c1ccc2c(c1)NC(=O)/C2=C(\Nc1ccc(N(C)C(=O)CN2CCN(C)CC2)cc1)c1ccccc1` [nintedanib esylate, (3Z)-2,3-dihydro-3-[[[4-[methyl[(4-methyl-1-piperazinyl)acetyl]amino]phenyl]amino]phenylmethylene]-2-oxo-1H-indole-6-carboxylic acid methyl ester], for which the Bioavailability in humans entry in data set [2] is on record as “low”. For the same compound, the “Chemical stability in the presence of water” value in data set [3] is given as “undergo hydrolysis”. For the same compound, the “Solubility in neutral aqueous conditions” value in data set [4] is on record as “poor”. Regarding `COC(=O)c1ccc2c(c1)NC(=O)C2=C(Nc1ccc(N(C)C(=O)CN2CCN(C)CC2)cc1)c1ccccc1.O=C(O)CCCC(=O)O` [Nintedanib glutarate Form APO-I, nintedanib glutarate], the “Form stability result (PXRD)” value in data set [1] (1 month) is on record as “NC”. For the compound `CC(=O)CCC(=O)O.COC(=O)c1ccc2c(c1)NC(=O)C2=C(Nc1ccc(N(C)C(=O)CN2CCN(C)CC2)cc1)c1ccccc1` [Nintedanib levulinate Form APO-I, nintedanib levulinate], in data set [1] (3 months), the “Form stability result (PXRD)” value was “NC”. Take `COC(=O)c1ccc2c(c1)NC(=O)C2=C(Nc1ccc(N(C)C(=O)CN2CCN(C)CC2)cc1)c1ccccc1.O=C1NS(=O)(=O)c2ccccc21` [Nintedanib saccharinate Form APO-I, nintedanib saccharinate]: the “Form stability result (PXRD)” value in data set [1] (1 month) is listed as “NC”. As to `COC(=O)c1ccc2c(c1)NC(=O)C2=C(Nc1ccc(N(C)C(=O)CN2CCN(C)CC2)cc1)c1ccccc1.O=C(O)CNC(=O)c1ccccc1` [Nintedanib hippurate Form APO-I, nintedanib hippurate], in data set [1] (3 months), the “Form stability result (PXRD)” value was “NC”. Besides, the “1H NMR spectroscopy following storage” value in data set [1] (after storage (3 months per Table 8)) was “no change”.
